Data reported in patent EP1900728A1 (Genecare Research Institute Co., Ltd, priority 2005, dated 2006).

The compounds below were run against T1, IκBα ubiquitinating enzyme (SCF complex: ROC1, Cullin1, Skp1, His-TrCP1; with E1, UbcH5b) (Homo sapiens, UniProt P62877+P63208+Q13616+Q9Y297) (assay: Measurement of ubiquitinating enzyme activity (IκBα ubiquitination, time-resolved fluorescence with Eu(K)-labeled ubiquitin and XL665-labeled anti-GST antibody)). Settings: enzyme activity inhibition test, method (1), Table 5; read-out: EVALUATION.
T1 construct: His (polyhistidine); made in house; host or cells: insect cells (baculovirus) for the SCF complex and His-E1; E. coli for His-UBCH5b
T1 sequence (Q9Y297 whole entry): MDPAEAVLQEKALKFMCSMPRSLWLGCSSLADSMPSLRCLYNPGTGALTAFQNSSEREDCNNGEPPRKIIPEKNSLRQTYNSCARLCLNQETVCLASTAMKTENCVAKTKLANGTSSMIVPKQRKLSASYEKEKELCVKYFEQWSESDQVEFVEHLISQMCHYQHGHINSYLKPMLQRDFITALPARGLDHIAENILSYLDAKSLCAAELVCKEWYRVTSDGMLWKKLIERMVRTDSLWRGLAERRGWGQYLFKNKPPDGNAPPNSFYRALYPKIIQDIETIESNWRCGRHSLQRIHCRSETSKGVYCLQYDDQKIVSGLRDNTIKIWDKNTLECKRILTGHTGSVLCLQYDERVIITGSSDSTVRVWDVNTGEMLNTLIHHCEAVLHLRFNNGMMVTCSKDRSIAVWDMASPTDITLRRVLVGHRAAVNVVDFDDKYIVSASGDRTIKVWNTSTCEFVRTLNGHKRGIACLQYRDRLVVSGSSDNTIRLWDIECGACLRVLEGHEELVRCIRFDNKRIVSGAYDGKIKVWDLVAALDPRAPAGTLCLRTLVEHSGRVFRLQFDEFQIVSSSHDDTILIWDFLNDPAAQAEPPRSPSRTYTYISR
T1 sequence (Q13616 whole entry): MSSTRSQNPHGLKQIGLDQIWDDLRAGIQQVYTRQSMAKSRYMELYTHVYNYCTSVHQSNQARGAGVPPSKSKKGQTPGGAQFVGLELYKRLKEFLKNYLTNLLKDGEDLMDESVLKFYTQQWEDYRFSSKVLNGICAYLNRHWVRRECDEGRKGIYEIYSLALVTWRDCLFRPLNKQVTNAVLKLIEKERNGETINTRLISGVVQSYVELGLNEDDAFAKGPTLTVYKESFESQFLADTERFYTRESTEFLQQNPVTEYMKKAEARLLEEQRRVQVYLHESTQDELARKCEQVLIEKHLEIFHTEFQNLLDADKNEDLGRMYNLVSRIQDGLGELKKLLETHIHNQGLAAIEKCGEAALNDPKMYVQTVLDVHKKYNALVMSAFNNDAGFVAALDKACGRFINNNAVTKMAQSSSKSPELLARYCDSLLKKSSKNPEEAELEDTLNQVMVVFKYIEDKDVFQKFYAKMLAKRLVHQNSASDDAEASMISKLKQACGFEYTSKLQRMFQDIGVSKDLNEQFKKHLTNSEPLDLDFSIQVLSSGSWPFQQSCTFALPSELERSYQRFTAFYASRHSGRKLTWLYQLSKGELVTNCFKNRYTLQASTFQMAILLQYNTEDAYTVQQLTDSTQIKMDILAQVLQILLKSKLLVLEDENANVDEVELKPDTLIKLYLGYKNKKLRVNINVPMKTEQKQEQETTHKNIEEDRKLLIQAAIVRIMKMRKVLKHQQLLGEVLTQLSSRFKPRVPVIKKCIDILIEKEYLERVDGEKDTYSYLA
T1 sequence (P63208 whole entry): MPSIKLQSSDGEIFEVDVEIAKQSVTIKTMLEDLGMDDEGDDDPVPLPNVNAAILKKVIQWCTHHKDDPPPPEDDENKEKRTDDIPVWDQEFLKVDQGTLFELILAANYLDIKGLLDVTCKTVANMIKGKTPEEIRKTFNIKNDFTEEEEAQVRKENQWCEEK
T1 sequence (P62877 whole entry): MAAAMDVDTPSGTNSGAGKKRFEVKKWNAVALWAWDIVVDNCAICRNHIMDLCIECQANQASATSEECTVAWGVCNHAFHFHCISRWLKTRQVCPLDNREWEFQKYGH
Type: biochemical
Method: Method 1: Measurement of ubiquitinating enzyme activity
A recombinant vector His-UBCH5b containing a polyhistidine tag (His) and UBCH5b was prepared. E. coli was transformed with the vector, the protein was expressed, and affinity purification was carried out using Ni-NTA agarose (Qiagen). Four types of recombinant baculoviruses (ROC1, Cullin1, Skp1, and His-TrCP1) were prepared for the SCF complex protein, insect cells were infected in quadruplicate for expression, and affinity purification was carried out using Ni-NTA agarose. Recombinant baculoviruses His-IKKβ, His-E1 were prepared. The insect cells were infected with each of those for expression, and affinity purification was carried out using Ni-NTA agarose. A recombinant vector GST-IκBα was prepared by fusing glutathione-S-transferase tag (GST) and IκBα, E. coli was transformed with the vector for the protein expression, and affinity purification was carried out using glutathione sepharose (Amersham Biosciences). Genetic transformants were prepared by PCR amplification followed by recombination, all of which were based on published human-derived sequences.
Phosphorylation reaction of IκBα was performed by incubating the above-mentioned assay buffer (50 mM Tris-HCl (pH7.4), 2 mM ATP, 5 mM MgCl2, 0.5 mM DTT, 0.1% BSA) containing IκBα and IKKβ at room temperature for 1 hour. Ubiquitination reactions were carried out as follows. Compound samples at various concentrations, ubiquitin, Eu (K)-labeled ubiquitin, E1, UbcH5b, and SCF complex were added to phosphorylated IκBα, and then this was incubated at room temperature for 30 minutes. The reaction was terminated by adding EDTA, the above-mentioned revelation buffer (100 mM phosphate buffer (pH7.0), 0.5 M KF, 0.1% BSA) containing XL665-labeled anti-GST antibody was added and this was left to stand at room temperature for 2 hours. Measurements were made using ARVO-HTS (Perkin Elmer). The ratio of fluorescence intensities at 620 nm and 665 nm (Em 665 nm/Em 620 nm x 10,000) with excitation light at 337 nm was measured.
The ubiquitination level without the addition of a compound sample was used as the control value, and the level in the absence of SCF complex was used as the blank value for the assays. Inhibitory activities of the compounds were indicated as % inhibition = 100 - (value with a compound sample added - blank value) / (control value - blank value) x 100. IC50 was indicated as the concentration of the compound showing 50% inhibition. Eu (K)-labeled ubiquitin, XL665-labeled anti-GST antibody, and XL665-labeled anti-His antibody were purchased from CIS bio international. Costar solid black plates (96 wells) were used for the assays.

Row | SMILES | IC50 [µM]
1 | CC1=NN(c2ccc(S(N)(=O)=O)cc2)C(=O)/C1=C\c1ccc(OCC(=O)N(C)C)cc1 [Compound 209] | 10 to 20
2 | CC1=NN(c2cccc(S(N)(=O)=O)c2)C(=O)/C1=C\c1ccc(N2CCN(c3ccc(F)cc3)CC2)cc1 [Compound 177] | 10 to 20
3 | CC1=NN(c2ccc(S(N)(=O)=O)cc2)C(=O)/C1=C\c1ccc2occc2c1 [Compound 144] | 10 to 20
4 | CC1=NN(c2ccc(S(N)(=O)=O)cc2)C(=O)C1=Cc1cccc2cc[nH]c12 [Compound 151] | < 10
5 | CC1=NN(c2ccccc2)C(=O)/C1=C\c1ccc(OCC(=O)N(C)C)cc1 [Compound 206] | < 40
6 | O=C1/C(=C\c2ccc3c(c2)OCCO3)C(c2cccnc2)=NN1c1ccccc1 [Compound 66] | < 40
7 | CC(C)(C)OC(=O)N1CCN(C(=O)C2=NN(c3ccccc3)C(=O)C2=Cc2ccc(N3CCCC3)cc2)CC1 [Compound 89] | < 40
8 | CCOC(=O)c1ccc(COc2ccc(/C=C3\C(=O)N(c4cccc(S(N)(=O)=O)c4)N=C3C)cc2OC)o1 [Compound 155] | < 40
9 | COCC1=NN(c2ccc(C(=O)O)cc2)C(=O)C1=Cc1ccc(N2CCC(O)CC2)s1 [Compound 240] | < 40
10 | CC1=NN(c2ccc(S(N)(=O)=O)cc2)C(=O)/C1=C\c1ccc(C(=O)O)cc1 [Compound 223] | 10 to 20
11 | O=C(O)c1ccc(N2N=C(Cc3ccccc3)/C(=C/c3nccs3)C2=O)cc1 [Compound 270] | < 40
12 | O=C(O)c1ccc(N2N=C(Cc3ccccc3)/C(=C/c3ccc4ccccc4c3)C2=O)cc1 [Compound 264] | 10 to 20
13 | O=C1/C(=C\c2ccc(-c3ccccc3F)o2)C(Cc2ccccc2)=NN1c1ccccc1 [Compound 26] | < 40
14 | CC1=NN(c2ccc(C(=O)O)cc2)C(=O)/C1=C\c1nccs1 [Compound 257] | < 40
15 | O=C1/C(=C\c2ccc(CO)o2)C(c2ccccn2)=NN1c1ccccc1 [Compound 48] | < 40
16 | O=C(O)c1ccc(N2N=C(Cc3ccccc3)/C(=C/c3ccc(-n4cncn4)cc3)C2=O)cc1 [Compound 276] | < 40

Row | SMILES | IC50 [µM]
17 | CC1=NN(c2cccc(S(N)(=O)=O)c2)C(=O)/C1=C\c1ccc(-n2cccn2)cc1 [Compound 145] | 10 to 20
18 | COc1cc(/C=C2\C(=O)N(c3ccc(S(N)(=O)=O)cc3)N=C2C)ccc1OCn1nnc2ccccc21 [Compound 156] | 10 to 20
19 | O=C(O)c1ccc(N2N=C(c3ccoc3)C(=Cc3ccc(N4CCC(O)CC4)s3)C2=O)cc1 [Compound 251] | < 40
20 | O=C1/C(=C\c2ccc(CO)o2)C(c2ccncc2)=NN1c1ccccc1 [Compound 44] | < 40
21 | COC(=O)N1CCN(c2ccc(/C=C3\C(=O)N(c4ccccc4)N=C3c3cccnc3)cc2)CC1 [Compound 62] | < 40
22 | CCCCC1=NN(c2ccccc2)C(=O)C1=Cc1ccc(N2CCN(C)CC2)cc1 [Compound 106] | < 40
23 | COc1cc(/C=C2\C(=O)N(c3ccc(S(N)(=O)=O)cc3)N=C2C)ccc1OCc1c(C)noc1C [Compound 158] | < 40
24 | COc1cc(/C=C2\C(=O)N(c3ccc(S(N)(=O)=O)cc3)N=C2C)ccc1OCC1CC1 [Compound 159] | 10 to 20
25 | COc1cc(/C=C2\C(=O)N(c3cccc(S(N)(=O)=O)c3)N=C2C)ccc1OCn1nnc2ccccc21 [Compound 157] | 10 to 20
26 | COc1cc(/C=C2\C(=O)N(c3ccccc3)N=C2c2ccncc2)ccc1O [Compound 40] | < 40
27 | CC1=NN(c2ccc(S(N)(=O)=O)cc2)C(=O)C1=Cc1c[nH]c2ccc(Cl)cc12 [Compound 146] | < 10
28 | COc1ccc(C2=NN(c3ccccc3)C(=O)C2=Cc2ccc(CO)o2)cc1OC [Compound 35] | < 40
29 | CC1=NN(c2cccc(S(N)(=O)=O)c2)C(=O)/C1=C\c1ccc(N2CCN(c3ccccc3)CC2)cc1 [Compound 170] | < 10
30 | CN1CCN(c2ccc(/C=C3\C(=O)N(c4ccccc4)N=C3C3CC3)cc2)CC1 [Compound 78] | 10 to 20
31 | CCCCC1=NN(c2ccccc2)C(=O)/C1=C\c1ccc2ccccc2c1 [Compound 51] | < 40

Further lines, results first:

Row | IC50 [µM] | SMILES
32 | < 10 | CC1=NN(c2cccc(C(=O)O)c2)C(=O)/C1=C\c1ccc2c(ccn2C(=O)c2ccccc2)c1 [Compound 529]
33 | 10 to 20 | CC1=NN(c2cccc(C(=O)O)c2)C(=O)/C1=C\c1ccc(N2CCCC2CO)cc1 (stereo not drawn) [Compound 422]
34 | 10 to 20 | CC1=NN(c2cccc(C(=O)O)c2)C(=O)/C1=C\c1ccc2c(c1)OCCO2 [Compound 402]
35 | < 10 | O=C(O)c1ccc(N2N=C(c3ccoc3)/C(=C/c3ccc(N4CCC(CO)CC4)cc3)C2=O)cc1 [Compound 438]
36 | < 40 | CC1=NN(c2ccc(C(=O)O)cc2)C(=O)/C1=C\c1cccs1 [Compound 517]
37 | < 10 | CC1=NN(c2cccc(C(=O)O)c2)C(=O)/C1=C\c1c[nH]c2ccc(Cl)cc12 [Compound 377]
38 | < 40 | CC1=NN(c2cccc(C(=O)O)c2)C(=O)/C1=C\c1c(C)nn(C)c1Cl [Compound 513]
39 | 10 to 20 | O=C(O)c1cccc(N2N=C(c3ccoc3)/C(=C/c3ccc(CO)o3)C2=O)c1 [Compound 488]
40 | 10 to 20 | CC1=NN(c2ccc(C(=O)NCc3ccc4c(c3)OCO4)cc2)C(=O)/C1=C\c1ccc2c(c1)OCCO2 [Compound 397]
41 | < 10 | COCC1=NN(c2ccc(C(=O)O)cc2)C(=O)/C1=C\c1cccc2nccnc12 [Compound 327]
42 | 10 to 20 | COc1cc(/C=C2\C(=O)N(c3ccc(C(=O)O)cc3)N=C2c2ccccn2)ccc1OCc1ccccc1 [Compound 289]
43 | < 10 | COCC1=NN(c2ccc(C(=O)O)cc2)C(=O)/C1=C\c1ccc2[nH]ccc2c1 [Compound 465]
44 | < 10 | O=C(O)c1ccc(N2N=C(C3CC3)/C(=C/c3ccc(-n4ccnc4)cc3)C2=O)cc1 [Compound 318]
45 | 10 to 20 | O=C(O)c1ccc(N2N=C(c3ccccn3)/C(=C/c3ccc4c(c3)OCCO4)C2=O)cc1 [Compound 292]
46 | < 40 | CC(=O)OCc1ccc(/C=C2\C(=O)N(c3ccc(C(=O)O)cc3)N=C2C)o1 [Compound 524]
47 | < 40 | CC1=NN(c2ccc(C(=O)O)cc2)C(=O)C1=Cc1ccc(N2CCC(N3CCCC3)CC2)cc1 [Compound 450]

Row | IC50 [µM] | SMILES
48 | 10 to 20 | CC1=NN(c2ccc(C(=O)N(C)C)cc2)C(=O)/C1=C\c1ccc2[nH]ccc2c1 [Compound 363]
49 | < 10 | CC1=NN(c2ccc(C(=O)O)cc2)C(=O)/C1=C\c1ccc2cc[nH]c2c1 [Compound 380]
50 | 10 to 20 | CC1=NN(c2cccc(C(=O)O)c2)C(=O)/C1=C\c1ccoc1 [Compound 418]
51 | < 40 | CC1=NN(c2cccc(C(=O)N3CCC(CO)CC3)c2)C(=O)/C1=C\c1ccc2c(c1)OCCO2 [Compound 383]
52 | < 10 | O=C(O)c1ccc(N2N=C(c3ccoc3)/C(=C/c3ccc4c(c3)OCCO4)C2=O)cc1 [Compound 330]
53 | < 40 | CC1=NN(c2ccc(C(=O)NCC(C)O)cc2)C(=O)C1=Cc1ccc2c(c1)OCCO2 (stereo not drawn) [Compound 398]
54 | < 40 | COc1ccc(C2=NN(c3ccc(C(=O)O)cc3)C(=O)/C2=C\c2ccc(-n3ccnc3)cc2)cc1OC [Compound 282]
55 | 10 to 20 | O=C(O)c1ccc(N2N=C(c3cccnc3)/C(=C/c3ccc(-c4ccccc4F)o3)C2=O)cc1 [Compound 339]
56 | 10 to 20 | COc1cc(/C=C2\C(=O)N(c3cccc(C(=O)O)c3)N=C2C)ccc1OCc1c(C)noc1C [Compound 394]
57 | < 10 | CC1=NN(c2cccc(C(=O)O)c2)C(=O)/C1=C\c1ccc(N2CCN(C(=O)c3cnoc3)CC2)cc1 [Compound 445]
58 | 10 to 20 | CC1=NN(c2ccc(C(=O)N3CCOCC3)cc2)C(=O)/C1=C\c1ccc2c(c1)OCCO2 [Compound 386]
59 | < 40 | CC1=NN(c2cccc(C(=O)O)c2)C(=O)/C1=C\c1cccs1 [Compound 508]
60 | < 40 | Cn1cc(-c2ccc(/C=C3\C(=O)N(c4cccc(C(=O)O)c4)N=C3Cc3ccccc3)o2)cn1 [Compound 510]
61 | < 40 | CC1=NN(c2ccc(C(=O)O)cc2)C(=O)/C1=C\c1ccsc1 [Compound 511]
62 | < 10 | CC1=NN(c2cccc(C(=O)O)c2)C(=O)/C1=C\c1ccc2c(ccn2C)c1 [Compound 493]

Same assay, conditions: read-out: EVALUATION; enzyme activity inhibition test, method (1), Table 5

Row | SMILES | IC50 [µM]
63 | CC1=NN(c2cccc(C(=O)O)c2)C(=O)C1=Cc1ccc(-c2cnn(C)c2)o1 [Compound 495] | 10 to 20
